Laboratory results taken from patent US20050203115A1, “Narcotic-NSAID ion pairs” (priority 2004, published 2005).
Read-outs that look alike come from different tables or passages of the source.

Columns and labels:
[1] = methanolic solution 61 mg/mL added to HCl 0.1 N
Description: Measurements were obtained using a Sympatec HELOS model KF particle sizer with SUCELL and R5 lens (0.5-875 μm), pump, and stirrer speeds set to 50% of the maximum value.

[2] = approx. 48 mg in 400 mL, 36.8° C., approximately 12 hours
Method: The solutions were stirred by paddles at 150 RPM for approximately 12 hours. […] The standards and sample preparations were measured at 282 nm in a 1 cm cell using a UV spectrophotometer. The results were determined from the linearity curve generated from the standard data.

CCC(=O)O[C@](Cc1ccccc1)(c1ccccc1)[C@H](C)CN(C)C.O=C(O)Cc1ccccc1Nc1c(Cl)cccc1Cl [Propoxyphene Diclofenate, (2S,3R)-(+)-4-(Dimethylamino)-3-methyl-1,2-diphenyl-2-butanol Propionate Diclofenate]
Particle size Mean ([1]; 15 minutes): 152.4 μm | Particle size ≦50% ([1]; 15 minutes): 141.2 μm | Particle size ≦90% ([1]; 15 minutes): 287.9 μm | Particle size Mean ([1]; 45 minutes): 155.5 μm | Particle size ≦50% ([1]; 45 minutes): 143.0 μm | Particle size ≦90% ([1]; 45 minutes): 293.9 μm | Particle size Mean ([1]; 75 minutes): 161.7 μm | Particle size ≦50% ([1]; 75 minutes): 140.5 μm | Particle size ≦90% ([1]; 75 minutes): 308.6 μm | Particle size Mean ([1]; 120 minutes): 149.2 μm | Particle size ≦50% ([1]; 120 minutes): 135.4 μm | Particle size ≦90% ([1]; 120 minutes): 286.3 μm | Particle size Mean ([1]; 150 minutes): 124.2 μm | Particle size ≦50% ([1]; 150 minutes): 110.2 μm | Particle size ≦90% ([1]; 150 minutes): 238.4 μm | % Dissolved ([2]; water pH 3): 0.009% | mg Dissolved from 48 mg Solution ([2]; water pH 3): 0.004 mg | mg/mL Dissolved ([2]; water pH 3): 1.0528e-05 mg/mL | % Dissolved ([2]; water pH 5): 74.878% | mg Dissolved from 48 mg Solution ([2]; water pH 5): 36.005 mg | mg/mL Dissolved ([2]; water pH 5): 0.09 mg/mL | % Dissolved ([2]; water pH 7): 75.677% | mg Dissolved from 48 mg Solution ([2]; water pH 7): 36.644 mg | mg/mL Dissolved ([2]; water pH 7): 0.0916 mg/mL | % Dissolved ([2]; water pH 9): 71.168% | mg Dissolved from 48 mg Solution ([2]; water pH 9): 34.018 mg | mg/mL Dissolved ([2]; water pH 9): 0.08504 mg/mL | % Dissolved ([2]; water pH 11): 39.395% | mg Dissolved from 48 mg Solution ([2]; water pH 11): 18.700 mg | mg/mL Dissolved ([2]; water pH 11): 0.04676 mg/mL
